Read-outs that look alike come from different tables or passages of the source.
Columns and labels:
L. major = L. major footpad infection in Balb/c mice; type: in vivo; conditions: 80 mg/kg/day intraperitoneally in corn oil for seven days
Protocol: Compound 1 dissolved in corn oil was administered intraperitoneally to Balb/c mice (Ball State University colony) at 80 mg/kg/day for seven days beginning one day prior to injection of 5×10^6 L. major promastigotes in medium 199 in the hind foot. Control mice received an equivalent amount of corn oil and L. major. Beginning on day 8, the thickness of the footpads top to bottom was measured using a vernier caliper. Footpad swelling indicates progression of the disease. The percent increase in footpad size was calculated as: [formula]
The percent increase in footpad size is for triplicate mice in the control group and duplicate mice in the treated group.

[1] = Solubility in dosing vehicle; type: physicochemical; conditions: 10 percent emulphor 620 in Dulbecco's phosphate buffered saline
Protocol: CY was dissolved in isotonic saline, 20 and 21 were dissolved in corn oil, and 1 was dissolved in 10 percent emulphor 620 in Dulbecco's phosphate buffered saline. […] Starting 1 day after tumor implantation, drugs were administered interperitoneally (IP) at the doses given in Table X. CY and compounds 20 and 21 were given once daily for 8 days. Compound 1 was administered in three doses per day at lower dose levels, and the animals were treated for 7 days. On day 10, tumor masses, percent inhibition of tumor growth, and weight changes were determined.

[2] = system: K/1 = ras^K Transformed NRKE Cells; conditions: for Differential Index K/1: K/1 = ras^K transformed NRKE cells, compared with normal NRKE cells
[3] = system: K/1-NRKE tumor (ras^K-transformed NRKE cells)
[4] = system: K/1 = ras^K Transformed NRKE Cells; experiment: cells; conditions: Rattus norvegicus
[5] = system: H/1.2 = ras^H Transformed NRKE Cells; experiment: cells; conditions: Rattus norvegicus
[6] = system: 3LL = Lewis Lung Carcinoma Cells; experiment: cells; conditions: Mus musculus
Leukemia cell lines = experiment: NCI in vitro anticancer screen (SRB), leukemia subpanel; conditions: 48 hours exposure; average percent growth over the cell lines
Protocol: (§1) Compounds chosen for the program are initially tested in an in vitro anticancer screen. A total of fifty-five human tumor cell lines, derived from nine cancer types (lung, colon, melanoma, renal, ovarian, brain, prostate, breast and leukemia), are used in this screen. The tumor cells are inoculated over a series of standard 96-well microtiter plates on day 0. These cells are then preincubated on the microtiter plates for 24 hours. The test compounds are added to the wells in five 10-fold dilutions starting from the highest soluble concentration. Each compound is tested against every cell line in the panel. The compounds are incubated for 48 hours with the tumor cell lines. At the termination of the assay, the cells are fixed in situ, washed, and dried. Sulforhodamine B (SRB), a pink anionic dye that binds to the basic amino acids of trichloroacetic acid-fixed cells, is added. The cells are washed again, and the remaining dye is a function of the adherent cell mass. The bound stain is solubilized and measured spectrophotometrically. The data are entered from automatic reading devices into a computer for subsequent storage and analysis.
(§2) The measured effect of each test compound on the cell lines is calculated according to one or the other of the following two expressions:
(§3) If (Mean ODtest−Mean ODtzero)□0, then PG=100×(Mean ODtest−Mean ODtzero)/(Mean ODctrl−Mean ODtzero);
(§4) If (Mean ODtest−Mean ODtzero)<0, then PG=100×(Mean ODtest−Mean ODtzero)/Meantzero;
(§5) First, a data sheet is provided which lists, for each cell line, the Mean ODtzero, the Mean ODctrl, the Mean ODtest for each of the five concentrations, the calculated PGs for each concentration, and the response parameters G150, TGI, and LC50.
(§6) Third, mean graphs at each of the principal response parameters (GI50, TGI, and LC50) are provided. […] Since the bar scale is logarithmic, a bar two units to the right implies the compound achieved the response parameter (e.g., GI50) for the cell line at a concentration 1/100 the mean concentration required over all cell lines, and thus the cell line is unusually sensitive to that compound. Bars extending to the left correspondingly imply sensitivity less than the mean. Thus, the mean graphs facilitate visual scanning of data for potential patterns of selectivity for particular cell lines or for particular subpanels with respect to a selected response parameter.

Melanoma cell lines = experiment: NCI in vitro anticancer screen (SRB), melanoma subpanel; conditions: 48 hours exposure; average percent growth over the cell lines
Protocol: as §1, §2, §3, §4, §5, §6

CNS Cancer cell lines = experiment: NCI in vitro anticancer screen (SRB), CNS cancer subpanel; conditions: 48 hours exposure; average percent growth over the cell lines
Protocol: as §1, §2, §3, §4, §5, §6

Colon Cancer cell lines = experiment: NCI in vitro anticancer screen (SRB), colon cancer subpanel; conditions: 48 hours exposure; average percent growth over the cell lines
Protocol: as §1, §2, §3, §4

Renal Cancer cell lines = experiment: NCI in vitro anticancer screen (SRB), renal cancer subpanel; conditions: 48 hours exposure; average percent growth over the cell lines
Protocol: as §1, §2, §3, §4, §5, §6

Breast Cancer cell lines = experiment: NCI in vitro anticancer screen (SRB), breast cancer subpanel; conditions: 48 hours exposure; average percent growth over the cell lines
Protocol: as §1, §2, §3, §4

[7] = system: Ovarian Cancer cell lines; experiment: NCI in vitro anticancer screen (SRB), ovarian cancer subpanel; conditions: 48 hours exposure; average percent growth over the cell lines
Protocol: as §1, §2, §3, §4

[8] = system: Prostate Cancer cell lines; experiment: NCI in vitro anticancer screen (SRB), prostate cancer subpanel; conditions: 48 hours exposure; average percent growth over the cell lines
Protocol: as §1, §2, §3, §4

[9] = system: Non-Small Cell Lung Cancer cell lines; experiment: NCI in vitro anticancer screen (SRB), non-small cell lung cancer subpanel; conditions: for Activity (Average PG for highest dose tested) Non-Small Cell Lung Cancer: 48 hours exposure, average percent growth over the cell lines
Protocol: as §1, §2, §3, §4, §5, §6

[10] = NCI toxicity studies, maximum tolerated dose; conditions: mouse, in vivo; mice
Protocol: As a result of its performance in an initial and a repeat cancer screen, compound 55 has been selected for in vivo testing. Compound 55 was chosen primarily because of its selectivity for non-small cell lung cancer. To date, toxicity studies have been performed, and the maximum tolerated dose in mice has been determined to be 400 mg/kg.

[11] = system: H/1.2 = ras^H Transformed NRKE Cells; conditions: H/1.2 = ras^H transformed NRKE cells, compared with normal NRKE cells
[12] = system: N/4.2-NRKE transformed by the human ras^N gene; conditions: N/4.2 = ras^N transformed NRK cells, compared with normal NRKE cells
[13] = system: 3LL = Lewis Lung Carcinoma Cells; conditions: 3LL = Lewis lung carcinoma cells, compared with normal NRKE cells
[14] = system: N/4.2-NRKE transformed by the human ras^N gene; experiment: cells; conditions: N42, read-out: LC50 N/4.2
[15] = system: human tumor cells in hollow fibers; experiment: NCI Hollow Fiber Assay for preliminary in vivo testing; conditions: combined IP+SC score
Protocol: For these assays, human tumor cells are cultivated in polyvinylidene fluoride (PVDF) hollow fibers, and a sample of each cell line is implanted into each of two physiologic compartments (intraperitoneal and subcutaneous) in mice. Each test mouse receives a total of 6 fibers (3 intraperitoneally and 3 subcutaneously) representing 3 distinct cancer cells lines. Three mice are treated with potential antitumor compounds at each of 2 test doses by the intraperitoneal route using a QD×4 treatment schedule. Vehicle controls consist of 6 mice receiving the compound diluent only. The fiber cultures are collected on the day following the last day of treatment. To assess anticancer effects, viable cell mass is determined for each of the cell lines using a formazan dye (MTT) conversion assay. From this, the % T/C can be calculated using the average optical density of the compound treated samples divided by the average optical density of the vehicle controls. In addition, the net increase in cell mass can be determined for each sample as a sample of fiber cultures are assessed for viable cell mass on the day of implantation into mice. Thus, the cytostatic and cytocidal capacities of the test compound can be assessed.
This represents a total of 4 experiments since each experiment contains 3 cell lines. […]

[16] = 120 h, read-out: LC50 3LL, Table VII, concentration giving 50% cell kill, 5 days exposure
[17] = read-out: LC50 3LL, second table headed TABLE VIII

## COC(=O)c1nc(-c2ccc3c(n2)C(=O)C(NC(C)=O)=CC3=O)c2[nH]c3ccccc3c2c1C [Compound 1, 7-N-Acetyllavendamycin Methyl Ester]
L. major
  adverse effect of administration as measured by weight loss (in words): did not. appear to be adversely affected
[1]
  solubility in vehicle (in words): poorly soluble
[2]; LC50 NRKE divided by LC50 K/1
  selective toxicity against ras^K oncogene bearing tumor cells as compared to the normal, non-transformed cells: 9 fold
[2]; rat, 5 days
  CC50: 0.1 µM
[3]; 10 Mg/Kg/Day IP in three doses per day for 7 days
  Number Dead Number Treated: 0/7
[3]; 30 Mg/Kg/Day IP in three doses per day for 7 days
  Number Dead Number Treated: 0/7
[3]; 100 Mg/Kg/Day IP in three doses per day for 7 days
  Number Dead Number Treated: 0/7
[3]; mouse, in vivo
  toxicity in tumor-bearing nude mice (in words): little or no toxicity
[3]; summary of Table X
  tumor growth inhibition in vivo (in words): excellent tumor growth inhibition
[4]; 120 h, read-out: LC50 K/1
  CC50: 0.1 µM
[4]; read-out: LC50 K/1
  CC50: 0.1 µM
[5]; 120 h, read-out: LC50 H/1.2
  CC50: 0.7 µM
[5]; read-out: LC50 H/1.2
  CC50: 0.7 µM
[6]; [16]
  CC50: > 33 µM
[6]; read-out: LC50 3LL, Table VIII
  CC50: < 33 µM
[6]; [17]
  CC50: > 33 µM
In vitro; rat, LC50 NRKE
  CC50 at 5 days: 0.9 µM
Leukemia cell lines
  Activity (Average PG for highest dose tested) Leukemia: +36.3%
Melanoma cell lines
  Activity (Average PG for highest dose tested) Melanoma: +80.3%
CNS Cancer cell lines
  Activity (Average PG for highest dose tested) CNS Cancer: +60.2%
Colon Cancer cell lines
  Activity (Average PG for highest dose tested) Colon Cancer: +80.0%
Renal Cancer cell lines
  Activity (Average PG for highest dose tested) Renal Cancer: +63.0%
Breast Cancer cell lines
  Activity (Average PG for highest dose tested) Breast Cancer: +47.9%
[7]
  Activity (Average PG for highest dose tested) Ovarian Cancer: +70.0%
[8]
  Activity (Average PG for highest dose tested) Prostate Cancer: +89.5%
[9]
  Activity (Average PG for highest dose tested) Non-Small Cell Lung Cancer: +42.6%

## COC(=O)c1nc(-c2ccc3c(n2)C(=O)C(N)=CC3=O)c2[nH]c3ccccc3c2c1C [Compound 55, lavendamycin methyl ester, reference compound]
[10]
  MTD: 400 mg/kg
[2]
  Differential Index K/1: 3.33
[2]; ras^K cells versus normal cells
  selective toxicity (Table IX): 0.5
[11]
  Differential Index H/1.2: 0.9
[12]
  Differential Index N/4.2: 1.67
[13]
  Differential Index 3LL: 0.4
[4]; 120 h, read-out: LC50 K/1, Table VII, concentration giving 50% cell kill, 5 days exposure
  CC50: 0.2 µM
[4]; read-out: LC50 K/1, Table VIII
  CC50: 0.2 µM
[4]; read-out: LC50 K/1, Table XV (Example 51)
  CC50: 0.03 µM
[4]; read-out: LC50 K/1, second table headed TABLE VIII
  CC50: 0.2 µM
[5]; 120 h, read-out: LC50 H/1.2, Table VII, concentration giving 50% cell kill, 5 days exposure
  CC50: 0.1 µM
[5]; read-out: LC50 H/1.2, Table VIII
  CC50: 0.1 µM
[5]; read-out: LC50 H/1.2, Table XV (Example 51)
  CC50: 0.11 µM
[5]; read-out: LC50 H/1.2, second table headed TABLE VIII
  CC50: 0.1 µM
[14]
  CC50: 0.06 µM
[6]; [16]
  CC50: 0.5 µM
[6]; read-out: LC50 3LL, Table VIII
  CC50: 0.5 µM
[6]; read-out: LC50 3LL, Table XV (Example 51)
  CC50: 0.25 µM
[6]; [17]
  CC50: 0.5 µM
In vitro
  CC50 at 5 days: 0.1 µM
Leukemia cell lines
  Activity (Average PG for highest dose tested) Leukemia: +30.0%
Melanoma cell lines
  Activity (Average PG for highest dose tested) Melanoma: −53.0%
CNS Cancer cell lines
  Activity (Average PG for highest dose tested) CNS Cancer: −39.3%
Colon Cancer cell lines
  Activity (Average PG for highest dose tested) Colon Cancer: −20.0%
Renal Cancer cell lines
  Activity (Average PG for highest dose tested) Renal Cancer: −63.8%
Breast Cancer cell lines
  Activity (Average PG for highest dose tested) Breast Cancer: −43.8%
[7]
  Activity (Average PG for highest dose tested) Ovarian Cancer: −43.5%
[8]
  Activity (Average PG for highest dose tested) Prostate Cancer: −31.0%
[9]
  Activity (Average PG for highest dose tested) Non-Small Cell Lung Cancer: −60.8%
[9]; at GI50, TGI and/or LC50
  Selectivity: sensitivity of one of the seven non-small cell lung cancer cell lines relative to average sensitivity of the fifty-five cell lines: ~100 times more sensitive to compound 55 than the

## COC(=O)c1nc(-c2ccc3c(n2)C(=O)C(N)=C(Cl)C3=O)c2[nH]c3ccccc3c2c1C [Compound 58, 6-Chlorolavendamycin methyl ester]
[2]
  Differential Index K/1: 1.40
[11]
  Differential Index H/1.2: 1.07
[12]
  Differential Index N/4.2: 1.09
[13]
  Differential Index 3LL: 0.54
[15]
  Total Score: 14
Leukemia cell lines
  Activity (Average PG for highest dose tested) Leukemia: −14.6%
Melanoma cell lines
  Activity (Average PG for highest dose tested) Melanoma: −86.1%
CNS Cancer cell lines
  Activity (Average PG for highest dose tested) CNS Cancer: −52.2%
Colon Cancer cell lines
  Activity (Average PG for highest dose tested) Colon Cancer: −84.9%
Renal Cancer cell lines
  Activity (Average PG for highest dose tested) Renal Cancer: −73.7%
Breast Cancer cell lines
  Activity (Average PG for highest dose tested) Breast Cancer: −58.7%
[7]
  Activity (Average PG for highest dose tested) Ovarian Cancer: −39.3%
[8]
  Activity (Average PG for highest dose tested) Prostate Cancer: −63.0%
[9]
  Activity (Average PG for highest dose tested) Non-Small Cell Lung Cancer: −69.3%
